# Test system: HEK293
# Experiment: cells
# Format: functional, Homo sapiens, ATCC CRL1573
# Conditions: Homo sapiens, ATCC CRL1573, HEK293; ASSAY_TEST Inhibition of Cell Viability; detection method Resazurin; Fluorescence (ex560/em590); MEDIA DMEM with 10% FBS; plate type 384well; TC; CORNING #3712; time 18 hr; read-out: CC50
row,SMILES,CC50 [µg/mL]
1,COC(=O)c1ccc(C(=O)Nc2cc(C(=O)Nc3cc(C(=O)Nc4nc(C(=O)NCCCN(C)C)c(CCC(C)C)s4)n(C)c3)n(C)c2)cc1.O=C(O)C(F)(F)F,2.72
2,Cn1cc(NC(=O)c2ccc(/C=C/c3cnc4ccccc4c3)cc2)cc1C(=O)Nc1cc(C(=O)NCCN2CCOCC2)n(CCCc2cn(CCc3ccccc3)nn2)c1.O=C(O)C(F)(F)F,> 32
3,Cn1cc(NC(=O)c2cc(NC(=O)c3cc(NC(=O)c4ccc(Cl)cc4Cl)cn3C)cn2C)cc1C(=O)NCCCN1CCOCC1.O=C(O)C(F)(F)F,7.32
4,CC(C)c1sc(NC(=O)c2cc(NC(=O)c3cc(NC(=O)c4cc(NC=O)cn4C)cn3C)cn2C)nc1C(=O)NCCCN(C)C.O=C(O)C(F)(F)F,> 32
5,CN(C)CCCNC(=O)c1cc(NC(=O)c2cc(NC(=O)c3cc(NC(=N)c4cnc5ccccc5c4)cn3C)cn2C)cn1C.O=C(O)C(F)(F)F.O=C(O)C(F)(F)F,> 32

# Test system: Cryptococcus neoformans
# Experiment: not given
# Conditions: not given
row,MIC [µg/mL],SMILES
1,> 32,COC(=O)c1ccc(C(=O)Nc2cc(C(=O)Nc3cc(C(=O)Nc4nc(C(=O)NCCCN(C)C)c(CCC(C)C)s4)n(C)c3)n(C)c2)cc1.O=C(O)C(F)(F)F
2,16,Cn1cc(NC(=O)c2ccc(/C=C/c3cnc4ccccc4c3)cc2)cc1C(=O)Nc1cc(C(=O)NCCN2CCOCC2)n(CCCc2cn(CCc3ccccc3)nn2)c1.O=C(O)C(F)(F)F
3,> 32,Cn1cc(NC(=O)c2cc(NC(=O)c3cc(NC(=O)c4ccc(Cl)cc4Cl)cn3C)cn2C)cc1C(=O)NCCCN1CCOCC1.O=C(O)C(F)(F)F
4,> 32,CC(C)c1sc(NC(=O)c2cc(NC(=O)c3cc(NC(=O)c4cc(NC=O)cn4C)cn3C)cn2C)nc1C(=O)NCCCN(C)C.O=C(O)C(F)(F)F
5,8,CN(C)CCCNC(=O)c1cc(NC(=O)c2cc(NC(=O)c3cc(NC(=N)c4cnc5ccccc5c4)cn3C)cn2C)cn1C.O=C(O)C(F)(F)F.O=C(O)C(F)(F)F

# Test system: Staphylococcus aureus
# Experiment: microbe, parasite or virus in culture
# Conditions: ATCC 43300, 18 h, ASSAY_TEST Inhibition of Bacterial Growth, detection method Absorption (OD600), MEDIA CAMHB, plate type 384well, NBS, CORNING #3640
# Description: Antibacterial activity against Staphylococcus aureus MRSA ATCC 43300 (CO-ADD:GP_020); MIC in CAMBH media, using NBS plates, by OD(600)
row,MIC [µg/mL],SMILES
1,> 32,COC(=O)c1ccc(C(=O)Nc2cc(C(=O)Nc3cc(C(=O)Nc4nc(C(=O)NCCCN(C)C)c(CCC(C)C)s4)n(C)c3)n(C)c2)cc1.O=C(O)C(F)(F)F
2,> 32,Cn1cc(NC(=O)c2ccc(/C=C/c3cnc4ccccc4c3)cc2)cc1C(=O)Nc1cc(C(=O)NCCN2CCOCC2)n(CCCc2cn(CCc3ccccc3)nn2)c1.O=C(O)C(F)(F)F
3,> 32,Cn1cc(NC(=O)c2cc(NC(=O)c3cc(NC(=O)c4ccc(Cl)cc4Cl)cn3C)cn2C)cc1C(=O)NCCCN1CCOCC1.O=C(O)C(F)(F)F
4,16,CC(C)c1sc(NC(=O)c2cc(NC(=O)c3cc(NC(=O)c4cc(NC=O)cn4C)cn3C)cn2C)nc1C(=O)NCCCN(C)C.O=C(O)C(F)(F)F
5,> 32,CN(C)CCCNC(=O)c1cc(NC(=O)c2cc(NC(=O)c3cc(NC(=N)c4cnc5ccccc5c4)cn3C)cn2C)cn1C.O=C(O)C(F)(F)F.O=C(O)C(F)(F)F

# Test system: Escherichia coli
# Experiment: microbe, parasite or virus in culture
# Conditions: ATCC 25922, 18 h, ASSAY_TEST Inhibition of Bacterial Growth, detection method Absorption (OD600), MEDIA CAMHB, plate type 384well, NBS, CORNING #3640
# Description: Antibacterial activity against Escherichia coli ATCC 25922 (CO-ADD:GN_001); MIC in CAMBH media using NBS plates, by OD(600)
row,MIC [µg/mL],SMILES
1,> 32,COC(=O)c1ccc(C(=O)Nc2cc(C(=O)Nc3cc(C(=O)Nc4nc(C(=O)NCCCN(C)C)c(CCC(C)C)s4)n(C)c3)n(C)c2)cc1.O=C(O)C(F)(F)F
2,> 32,Cn1cc(NC(=O)c2ccc(/C=C/c3cnc4ccccc4c3)cc2)cc1C(=O)Nc1cc(C(=O)NCCN2CCOCC2)n(CCCc2cn(CCc3ccccc3)nn2)c1.O=C(O)C(F)(F)F
3,> 32,Cn1cc(NC(=O)c2cc(NC(=O)c3cc(NC(=O)c4ccc(Cl)cc4Cl)cn3C)cn2C)cc1C(=O)NCCCN1CCOCC1.O=C(O)C(F)(F)F
4,> 32,CC(C)c1sc(NC(=O)c2cc(NC(=O)c3cc(NC(=O)c4cc(NC=O)cn4C)cn3C)cn2C)nc1C(=O)NCCCN(C)C.O=C(O)C(F)(F)F
5,> 32,CN(C)CCCNC(=O)c1cc(NC(=O)c2cc(NC(=O)c3cc(NC(=N)c4cnc5ccccc5c4)cn3C)cn2C)cn1C.O=C(O)C(F)(F)F.O=C(O)C(F)(F)F

# Test system: Klebsiella pneumoniae
# Experiment: microbe, parasite or virus in culture
# Conditions: ATCC 700603, 18 h, ASSAY_TEST Inhibition of Bacterial Growth, detection method Absorption (OD600), MEDIA CAMHB, plate type 384well, NBS, CORNING #3640
# Description: Antibacterial activity against Klebsiella pneumoniae MDR ATCC 70063 (CO-ADD:GN_003); MIC in CAMBH media using NBS plates, by OD(600)
row,MIC [µg/mL],SMILES
1,> 32,COC(=O)c1ccc(C(=O)Nc2cc(C(=O)Nc3cc(C(=O)Nc4nc(C(=O)NCCCN(C)C)c(CCC(C)C)s4)n(C)c3)n(C)c2)cc1.O=C(O)C(F)(F)F
2,> 32,Cn1cc(NC(=O)c2ccc(/C=C/c3cnc4ccccc4c3)cc2)cc1C(=O)Nc1cc(C(=O)NCCN2CCOCC2)n(CCCc2cn(CCc3ccccc3)nn2)c1.O=C(O)C(F)(F)F
3,> 32,Cn1cc(NC(=O)c2cc(NC(=O)c3cc(NC(=O)c4ccc(Cl)cc4Cl)cn3C)cn2C)cc1C(=O)NCCCN1CCOCC1.O=C(O)C(F)(F)F
4,> 32,CC(C)c1sc(NC(=O)c2cc(NC(=O)c3cc(NC(=O)c4cc(NC=O)cn4C)cn3C)cn2C)nc1C(=O)NCCCN(C)C.O=C(O)C(F)(F)F
5,> 32,CN(C)CCCNC(=O)c1cc(NC(=O)c2cc(NC(=O)c3cc(NC(=N)c4cnc5ccccc5c4)cn3C)cn2C)cn1C.O=C(O)C(F)(F)F.O=C(O)C(F)(F)F

# Test system: Pseudomonas aeruginosa
# Experiment: microbe, parasite or virus in culture
# Conditions: ATCC 27853, 18 h, ASSAY_TEST Inhibition of Bacterial Growth, detection method Absorption (OD600), MEDIA CAMHB, plate type 384well, NBS, CORNING #3640
# Description: Antibacterial activity against Pseudomonas aeruginosa ATCC 27853 (CO-ADD:GN_042); MIC in CAMBH media using NBS plates, by OD(600)
row,MIC [µg/mL],SMILES
1,> 32,COC(=O)c1ccc(C(=O)Nc2cc(C(=O)Nc3cc(C(=O)Nc4nc(C(=O)NCCCN(C)C)c(CCC(C)C)s4)n(C)c3)n(C)c2)cc1.O=C(O)C(F)(F)F
2,> 32,Cn1cc(NC(=O)c2ccc(/C=C/c3cnc4ccccc4c3)cc2)cc1C(=O)Nc1cc(C(=O)NCCN2CCOCC2)n(CCCc2cn(CCc3ccccc3)nn2)c1.O=C(O)C(F)(F)F
3,> 32,Cn1cc(NC(=O)c2cc(NC(=O)c3cc(NC(=O)c4ccc(Cl)cc4Cl)cn3C)cn2C)cc1C(=O)NCCCN1CCOCC1.O=C(O)C(F)(F)F
4,> 32,CC(C)c1sc(NC(=O)c2cc(NC(=O)c3cc(NC(=O)c4cc(NC=O)cn4C)cn3C)cn2C)nc1C(=O)NCCCN(C)C.O=C(O)C(F)(F)F
5,> 32,CN(C)CCCNC(=O)c1cc(NC(=O)c2cc(NC(=O)c3cc(NC(=N)c4cnc5ccccc5c4)cn3C)cn2C)cn1C.O=C(O)C(F)(F)F.O=C(O)C(F)(F)F

# Test system: Acinetobacter baumannii
# Experiment: microbe, parasite or virus in culture
# Conditions: ATCC 19606, 18 h, ASSAY_TEST Inhibition of Bacterial Growth, detection method Absorption (OD600), MEDIA CAMHB, plate type 384well, NBS, CORNING #3640
# Description: Antibacterial activity against Acinetobacter baumannii ATCC 19606 (CO-ADD:GN_034); MIC in CAMBH media using NBS plates, by OD600
row,MIC [µg/mL],SMILES
1,> 32,COC(=O)c1ccc(C(=O)Nc2cc(C(=O)Nc3cc(C(=O)Nc4nc(C(=O)NCCCN(C)C)c(CCC(C)C)s4)n(C)c3)n(C)c2)cc1.O=C(O)C(F)(F)F
2,> 32,Cn1cc(NC(=O)c2ccc(/C=C/c3cnc4ccccc4c3)cc2)cc1C(=O)Nc1cc(C(=O)NCCN2CCOCC2)n(CCCc2cn(CCc3ccccc3)nn2)c1.O=C(O)C(F)(F)F
3,> 32,Cn1cc(NC(=O)c2cc(NC(=O)c3cc(NC(=O)c4ccc(Cl)cc4Cl)cn3C)cn2C)cc1C(=O)NCCCN1CCOCC1.O=C(O)C(F)(F)F
4,> 32,CC(C)c1sc(NC(=O)c2cc(NC(=O)c3cc(NC(=O)c4cc(NC=O)cn4C)cn3C)cn2C)nc1C(=O)NCCCN(C)C.O=C(O)C(F)(F)F
5,> 32,CN(C)CCCNC(=O)c1cc(NC(=O)c2cc(NC(=O)c3cc(NC(=N)c4cnc5ccccc5c4)cn3C)cn2C)cn1C.O=C(O)C(F)(F)F.O=C(O)C(F)(F)F

# Test system: Candida albicans
# Experiment: microbe, parasite or virus in culture
# Conditions: ATCC 90028, ASSAY_TEST Inhibition of Fungal Growth, detection method Absorption (OD530), plate type 384well, NBS, CORNING #3640
# Description: Antifungal activity against Candida albicans ATCC 90028 (CO-ADD:FG_001); MIC in YNB media using NBS plates, by OD630
row,MIC [µg/mL],SMILES
1,> 32,COC(=O)c1ccc(C(=O)Nc2cc(C(=O)Nc3cc(C(=O)Nc4nc(C(=O)NCCCN(C)C)c(CCC(C)C)s4)n(C)c3)n(C)c2)cc1.O=C(O)C(F)(F)F
2,> 32,Cn1cc(NC(=O)c2ccc(/C=C/c3cnc4ccccc4c3)cc2)cc1C(=O)Nc1cc(C(=O)NCCN2CCOCC2)n(CCCc2cn(CCc3ccccc3)nn2)c1.O=C(O)C(F)(F)F
3,> 32,Cn1cc(NC(=O)c2cc(NC(=O)c3cc(NC(=O)c4ccc(Cl)cc4Cl)cn3C)cn2C)cc1C(=O)NCCCN1CCOCC1.O=C(O)C(F)(F)F
4,> 32,CC(C)c1sc(NC(=O)c2cc(NC(=O)c3cc(NC(=O)c4cc(NC=O)cn4C)cn3C)cn2C)nc1C(=O)NCCCN(C)C.O=C(O)C(F)(F)F
5,> 32,CN(C)CCCNC(=O)c1cc(NC(=O)c2cc(NC(=O)c3cc(NC(=N)c4cnc5ccccc5c4)cn3C)cn2C)cn1C.O=C(O)C(F)(F)F.O=C(O)C(F)(F)F

# From ChEMBL document CHEMBL4513139, “CO-ADD screening of University of Strathclyde (UK) compounds”
